Reference: US8809331B2 (Genentech, Inc., priority 2011, dated 2014)

biological target: T1, LRRK2 (Homo sapiens, UniProt Q5S007, G2019S); assay: In Vitro LRRK2 LabChip Assay (LRRK2 Ki); assay type: biochemical; details: Table 5 compounds (formula I)
T1 construct: purchased Invitrogen PV4882
Experimental: In Vitro LRRK2 LabChip Assay
This assay was used to determine a compound's potency in inhibiting activity of LRRK2 by determining, Kiapp, IC50, or percent inhibition values. In a polypropylene plate, LRRK2, fluorescently-labeled peptide substrate, ATP and test compound were incubated together. Using a LabChip 3000 (Caliper Life Sciences), after the reaction the substrate was separated by capillary electrophoresis into two populations: phosphorylated and unphosphorylated. The relative amounts of each were quantitated by fluorescence intensity. LRRK2 Ki was determined according to the equation: Y=V0*(1−((x+Ki*(1+S/Km)+Et)/(2*Et)−(((x+Ki*(1+S/Km)+Et)^2−(4*Et*x))^0.5)/(2*Et))). Ki values in Table 4 and elsewhere herein are shown in μM.
Assay conditions and materials used were as follows:
LRRK2 Wild type in 5 mM MgCl2: 15 nM (Invitrogen lot #500607F)
Kinase reaction time: 2 hours
Wild type in 5 mM MgCl2: 80 μM
Solid Support: Black 50 μL volume polypropylene 384 well plate (MatriCal cat # MP101-1-PP)
Kinase: LRRK2 G2019S (Invitrogen cat #PV4882). • LRRK2 Wild type (Invitrogen cat #PV4874).
Substrate: 5FAM-[…]-CONH2
Non-binding plate: 384 well clear V-bottom polypropylene plates (Greiner cat #781280).
ATP: 10 mM ATP (Cell Signaling cat #9804).
Coating Reagent #3: Coating Reagent #3 (Caliper).
Complete Reaction Buffer: H2O/25 mM Tris, pH 8.0/5 mM MgCl2/2 mM DTT/0.01% Triton X-100.
Stop Solution: H2O/100 mM HEPES, pH 7.2/0.015% Brij-35/0.2% Coating Reagent #3/20 mM EDTA.
Separation Buffer: H2O/100 mM HEPES, pH 7.2/0.015% Brij-35/0.1% Coating Reagent #3/1:200 Coating Reagent #8/10 mM EDTA/5% DMSO.
Compound Plate Preparation:
For serial dilutions, 34.6 μl DMSO was added to columns 3-24. For the assay controls, 37.5 μl DMSO was added to columns 1 and 2 of rows A and P. a, d and 50 μl 25 μM G-028831 (Staurosporine) was added to columns 1 and 2, row B. For the samples: to start at 100 μM, 37.5 μl DMSO was to columns 1 and 2, then 12.5 μl 10 mM compound; to start at 10 μM, 78 μl DMSO was added to columns 1 & 2, then 2 μl 10 mM compound; and to start at 1 μM, 25 μM compound (2 μl 10 mM cmpd+798 μl DMSO) was added to empty columns 1 and 2. A Precision instrument was used to perform 1:3.16 serial dilutions (“PLK_BM_serial_halflog”).
ATP was diluted to 282.1 μM in Complete Kinase Buffer (final concentration was 130 μM).
Total and Blank Preparation:
In Complete Reaction Buffer, substrate was diluted to 4 μM. Equal volumes of Complete Reaction Buffer and 4 μM substrate were combined to obtain the blank. Equal volumes of Complete Reaction Buffer and 4 μM substrate were combined and to the combined solution was added 2× final LRRK2 concentration.
To a 50 μl polypropylene plate, 5 μl/well buffer/substrate was added by hand to Blank wells. A Biomek FX was used to start the kinase reaction (“PLK SAR 23 ATP”). The following were added to the appropriate wells:
5 μl/well compound/ATP in Assay Plate;
5 μl/well kinase/substrate in Assay Plate;
The plate was incubated for 2 hours in the dark. Biomek FX was used to stop the kinase reaction (“PLK Stop”), and 10 μl/well Stop solution was added to the Assay Plate. Results were read on the LabChip 3000.
The LabChip 3000 was run using the job “LRRK2 IC50” with the following job settings:
Downstream voltage: −500 V
Upstream voltage: −2350 V
Post sample buffer sip time: 75 seconds
Post dye buffer sip time: 75 seconds
Final delay time: 200 seconds

T1 sequence (Q5S007 whole entry G2019S): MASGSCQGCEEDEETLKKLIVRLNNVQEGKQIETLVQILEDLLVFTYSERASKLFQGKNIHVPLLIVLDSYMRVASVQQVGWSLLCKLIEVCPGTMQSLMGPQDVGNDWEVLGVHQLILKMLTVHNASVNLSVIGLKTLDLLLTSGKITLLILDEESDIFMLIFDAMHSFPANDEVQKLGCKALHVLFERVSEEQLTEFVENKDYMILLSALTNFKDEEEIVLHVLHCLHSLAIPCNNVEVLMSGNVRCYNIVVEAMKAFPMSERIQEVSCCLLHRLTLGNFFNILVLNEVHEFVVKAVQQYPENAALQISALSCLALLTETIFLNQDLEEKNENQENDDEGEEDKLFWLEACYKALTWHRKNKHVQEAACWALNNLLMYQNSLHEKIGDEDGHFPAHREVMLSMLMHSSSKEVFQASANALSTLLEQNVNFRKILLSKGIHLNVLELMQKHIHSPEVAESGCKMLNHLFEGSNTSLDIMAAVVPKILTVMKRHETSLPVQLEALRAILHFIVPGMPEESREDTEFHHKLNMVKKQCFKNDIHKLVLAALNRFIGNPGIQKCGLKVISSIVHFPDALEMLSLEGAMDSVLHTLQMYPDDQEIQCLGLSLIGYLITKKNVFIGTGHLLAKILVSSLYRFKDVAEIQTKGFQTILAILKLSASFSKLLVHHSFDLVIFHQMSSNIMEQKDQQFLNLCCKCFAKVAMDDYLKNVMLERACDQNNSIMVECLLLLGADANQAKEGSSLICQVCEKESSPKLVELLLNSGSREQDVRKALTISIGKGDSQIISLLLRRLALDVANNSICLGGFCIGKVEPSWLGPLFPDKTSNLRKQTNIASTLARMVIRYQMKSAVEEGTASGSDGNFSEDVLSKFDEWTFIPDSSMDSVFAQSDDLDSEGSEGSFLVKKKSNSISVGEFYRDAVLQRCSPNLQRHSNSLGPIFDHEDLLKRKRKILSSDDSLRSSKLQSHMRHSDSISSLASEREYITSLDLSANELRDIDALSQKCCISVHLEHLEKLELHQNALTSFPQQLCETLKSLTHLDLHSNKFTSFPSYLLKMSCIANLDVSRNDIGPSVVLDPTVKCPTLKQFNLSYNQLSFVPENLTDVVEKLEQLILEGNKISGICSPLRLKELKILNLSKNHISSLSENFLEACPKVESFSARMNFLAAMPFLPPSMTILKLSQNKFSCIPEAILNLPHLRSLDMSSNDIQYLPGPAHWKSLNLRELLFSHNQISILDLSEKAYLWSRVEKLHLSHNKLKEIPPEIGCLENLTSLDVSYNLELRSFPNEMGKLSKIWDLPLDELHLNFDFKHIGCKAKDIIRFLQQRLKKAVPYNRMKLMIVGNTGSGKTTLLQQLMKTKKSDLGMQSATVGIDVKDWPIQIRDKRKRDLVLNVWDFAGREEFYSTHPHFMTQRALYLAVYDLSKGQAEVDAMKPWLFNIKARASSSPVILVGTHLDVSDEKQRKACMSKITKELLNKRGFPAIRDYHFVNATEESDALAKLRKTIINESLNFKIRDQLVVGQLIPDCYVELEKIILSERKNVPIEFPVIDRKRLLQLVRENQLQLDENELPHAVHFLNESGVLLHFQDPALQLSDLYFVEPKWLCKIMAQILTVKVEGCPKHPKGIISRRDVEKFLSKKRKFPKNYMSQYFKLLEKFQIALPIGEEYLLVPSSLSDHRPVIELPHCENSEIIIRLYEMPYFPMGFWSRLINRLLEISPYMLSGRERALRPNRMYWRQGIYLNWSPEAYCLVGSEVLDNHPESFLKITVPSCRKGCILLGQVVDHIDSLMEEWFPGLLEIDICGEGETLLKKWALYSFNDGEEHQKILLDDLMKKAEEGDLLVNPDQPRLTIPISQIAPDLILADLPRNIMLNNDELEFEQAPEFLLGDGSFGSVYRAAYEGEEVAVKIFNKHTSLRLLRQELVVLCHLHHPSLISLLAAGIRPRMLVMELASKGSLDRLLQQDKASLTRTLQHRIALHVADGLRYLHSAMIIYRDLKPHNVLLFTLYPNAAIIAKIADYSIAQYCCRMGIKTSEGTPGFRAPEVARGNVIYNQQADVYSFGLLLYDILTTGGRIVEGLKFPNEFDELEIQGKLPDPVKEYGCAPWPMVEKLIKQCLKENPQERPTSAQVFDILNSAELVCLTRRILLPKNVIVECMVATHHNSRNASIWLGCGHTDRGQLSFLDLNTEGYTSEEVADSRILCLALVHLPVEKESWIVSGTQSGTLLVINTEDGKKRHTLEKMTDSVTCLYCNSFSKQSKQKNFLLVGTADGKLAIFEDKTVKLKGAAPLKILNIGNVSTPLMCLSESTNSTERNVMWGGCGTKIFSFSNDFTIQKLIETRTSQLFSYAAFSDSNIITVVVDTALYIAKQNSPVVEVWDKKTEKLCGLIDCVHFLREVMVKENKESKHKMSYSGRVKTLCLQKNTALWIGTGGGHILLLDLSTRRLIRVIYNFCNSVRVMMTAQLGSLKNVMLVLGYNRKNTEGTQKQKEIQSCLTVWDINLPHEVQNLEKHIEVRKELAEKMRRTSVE

Row | SMILES | Ki
1 | CNc1nc(Nc2cc(OC)c(C(=O)N3CCN(CCOC)CC3)cc2Cl)ncc1C(F)(F)F [Compound 1, [5-Chloro-2-methoxy-4-(4-methylamino-5-trifluoromethyl-pyrimidin-2-ylamino)-phenyl]-[4-(2-methoxy-ethyl)-piperazin-1-yl]-methanone] | 4 nM
2 | CNc1nc(Nc2cc(C)c(C(=O)N3CCOCC3)cc2Cl)ncc1C(F)(F)F [Compound 2, [5-Chloro-2-methyl-4-(4-methylamino-5-trifluoromethyl-pyrimidin-2-ylamino)-phenyl]-morpholin-4-yl-methanone] | 7 nM
3 | CNc1nc(Nc2cc(F)c(C(=O)N3CCN4CCCC4C3)cc2OC)ncc1C(F)(F)F (stereo not drawn) [Compound 4, [2-Fluoro-5-methoxy-4-(4-methylamino-5-trifluoromethyl-pyrimidin-2-ylamino)-phenyl]-(hexahydro-pyrrolo[1,2-a]pyrazin-2-yl)-methanone] | 3.41 nM
4 | CNc1nc(Nc2cc(F)c(C(=O)N(C)C3CCN(C)CC3)cc2OC)ncc1C(F)(F)F [Compound 7, 2-Fluoro-5-methoxy-N-methyl-4-(4-methylamino-5-trifluoromethyl-pyrimidin-2-ylamino)-N-(1-methyl-piperidin-4-yl)-benzamide] | 7.55 nM
5 | COc1nc(Nc2ccc(C(=O)N3CCOCC3)cc2O)ncc1Cl [Compound 9, [4-(5-Chloro-4-methoxy-pyrimidin-2-ylamino)-3-hydroxy-phenyl]-morpholin-4-yl-methanone] | 120 nM
6 | CNc1nc(Nc2cc(O)c(C(=O)N3CCOCC3)cc2Cl)ncc1C(F)(F)F [Compound 10, [5-Chloro-2-hydroxy-4-(4-methylamino-5-trifluoromethyl-pyrimidin-2-ylamino)-phenyl]-morpholin-4-yl-methanone] | 11.6 nM
7 | CNc1nc(Nc2ccc(C(=O)N3CCOCC3)c(F)c2F)ncc1C(F)(F)F [Compound 12, [2,3-Difluoro-4-(4-methylamino-5-trifluoromethyl-pyrimidin-2-ylamino)-phenyl]-morpholin-4-yl-methanone] | 13.5 nM
8 | CNc1nc(Nc2ccc(C(=O)N3CCOCC3)c(F)c2F)ncc1Cl [Compound 13, [4-(5-Chloro-4-methylamino-pyrimidin-2-ylamino)-2,3-difluoro-phenyl]-morpholin-4-yl-methanone] | 14.5 nM
9 | CNc1nc(Nc2cc(OC)c(C(=O)N3C[C@@H]4C[C@H]3CO4)cc2Cl)ncc1C(F)(F)F [Compound 15, [5-Chloro-2-methoxy-4-(4-methylamino-5-trifluoromethyl-pyrimidin-2-ylamino)-phenyl]-(1S,4S)-2-oxa-5-aza-bicyclo[2.2.1]hept-5-yl-methanone] | 2.55 nM
10 | CNc1nc(Nc2cc(F)c(C(=O)N3CCOCC3)cc2F)ncc1C(F)(F)F [Compound 16, [2,5-Difluoro-4-(4-methylamino-5-trifluoromethyl-pyrimidin-2-ylamino)-phenyl]-morpholin-4-yl-methanone] | 24.2 nM
11 | CNc1nc(Nc2cc(F)c(C(=O)N3CCOCC3)cc2F)ncc1Cl [Compound 17, [4-(5-Chloro-4-methylamino-pyrimidin-2-ylamino)-2,5-difluoro-phenyl]-morpholin-4-yl-methanone] | 35.6 nM
12 | CNc1nc(Nc2cc(OC)c(C(=O)N3CC(N4CCOCC4)C3)cc2Cl)ncc1C(F)(F)F [Compound 20, [5-Chloro-2-methoxy-4-(4-methylamino-5-trifluoromethyl-pyrimidin-2-ylamino)-phenyl]-(3-morpholin-4-yl-azetidin-1-yl)-methanone] | 3.12 nM
13 | CNc1nc(Nc2ccc(C(=O)N3CCOCC3)cc2F)ncc1C(F)(F)F [Compound 22, [3-Fluoro-4-(4-methylamino-5-trifluoromethyl-pyrimidin-2-ylamino)-phenyl]-morpholin-4-yl-methanone] | 20.9 nM
14 | CNc1nc(Nc2cc(OC)c(C(=O)N3CCN(C4COC4)CC3)cc2Cl)ncc1C(F)(F)F [Compound 23, [5-Chloro-2-methoxy-4-(4-methylamino-5-trifluoromethyl-pyrimidin-2-ylamino)-phenyl]-(4-oxetan-3-yl-piperazin-1-yl)-methanone] | 4.09 nM
15 | CNc1nc(Nc2cc(OC)c(C(=O)N3CCC(F)(F)C3)cc2Cl)ncc1C(F)(F)F [Compound 24, [5-Chloro-2-methoxy-4-(4-methylamino-5-trifluoromethyl-pyrimidin-2-ylamino)-phenyl]-(3,3-difluoro-pyrrolidin-1-yl)-methanone] | 6.67 nM

Other lines, results leading:

Row | Ki | SMILES
16 | 1.43 nM | CNc1nc(Nc2cc(C)c(C(=O)N3CCOCC3)cc2OC)ncc1C(F)(F)F [Compound 3, [5-Methoxy-2-methyl-4-(4-methylamino-5-trifluoromethyl-pyrimidin-2-ylamino)-phenyl]-morpholin-4-yl-methanone]
17 | 1.78 nM | CNc1nc(Nc2cc(F)c(C(=O)N3C[C@H]4CC[C@@H](C3)O4)cc2OC)ncc1C(F)(F)F [Compound 5, [2-Fluoro-5-methoxy-4-(4-methylamino-5-trifluoromethyl-pyrimidin-2-ylamino)-phenyl]-(1S,5R)-8-oxa-3-aza-bicyclo[3.2.1]oct-3-yl-methanone]
18 | 0.501 nM | CCNc1nc(Nc2cc(F)c(C(=O)N3C[C@H]4CC[C@@H](C3)O4)cc2OC)ncc1C(F)(F)F [Compound 6, [4-(4-Ethylamino-5-trifluoromethyl-pyrimidin-2-ylamino)-2-fluoro-5-methoxy-phenyl]-(1S,5R)-8-oxa-3-aza-bicyclo[3.2.1]oct-3-yl-methanone]
19 | 0.7 nM | CNc1nc(Nc2cc(F)c(C(=O)N3CCC(N4CCOCC4)CC3)cc2OC)ncc1C(F)(F)F [Compound 8, [2-Fluoro-5-methoxy-4-(4-methylamino-5-trifluoromethyl-pyrimidin-2-ylamino)-phenyl]-(4-morpholin-4-yl-piperidin-1-yl)-methanone]
20 | 2.1 nM | CNc1nc(Nc2cc(F)c(C(=O)N3C[C@@H]4C[C@H]3CO4)cc2OC)ncc1C(F)(F)F [Compound 11, [2-Fluoro-5-methoxy-4-(4-methylamino-5-trifluoromethyl-pyrimidin-2-ylamino)-phenyl]-(1S,4S)-2-oxa-5-aza-bicyclo[2.2.1]hept-5-yl-methanone]
21 | 0.59 nM | CCNc1nc(Nc2cc(F)c(C(=O)N3C[C@@H]4C[C@H]3CO4)cc2OC)ncc1C(F)(F)F [Compound 14, [4-(4-Ethylamino-5-trifluoromethyl-pyrimidin-2-ylamino)-2-fluoro-5-methoxy-phenyl]-(1S,4S)-2-oxa-5-aza-bicyclo[2.2.1]hept-5-yl-methanone]
22 | 0.429 nM | CCNc1nc(Nc2cc(F)c(C(=O)NCC(C)(C)O)cc2OC)ncc1C(F)(F)F [Compound 18, 4-(4-Ethylamino-5-trifluoromethyl-pyrimidin-2-ylamino)-2-fluoro-N-(2-hydroxy-2-methyl-propyl)-5-methoxy-benzamide]
23 | 1.94 nM | CCNc1nc(Nc2cc(F)c(C(=O)N(C)CC(C)(C)O)cc2OC)ncc1C(F)(F)F [Compound 19, 4-(4-Ethylamino-5-trifluoromethyl-pyrimidin-2-ylamino)-2-fluoro-N-(2-hydroxy-2-methyl-propyl)-5-methoxy-N-methyl-benzamide]
24 | 0.371 nM | CCNc1nc(Nc2ccc(C(=O)NC(C)(C)C)cc2OC)ncc1C(F)(F)F [Compound 21, N-tert-Butyl-4-(4-ethylamino-5-trifluoromethyl-pyrimidin-2-ylamino)-3-methoxy-benzamide]

same assay, conditions: Table 6 compounds (formula II/III, fused ring)

Row | SMILES | Ki
25 | CNc1nc(Nc2cc(C)c(C(=O)N3CCOCC3)cc2Cl)ncc1C(F)(F)F [Compound 2, [5-Chloro-2-methyl-4-(4-methylamino-5-trifluoromethyl-pyrimidin-2-ylamino)-phenyl]-morpholin-4-yl-methanone] | 0.31 nM
26 | CNc1nc(Nc2cc(C)c(C(=O)N3CCOCC3)cc2OC)ncc1C(F)(F)F [Compound 3, [5-Methoxy-2-methyl-4-(4-methylamino-5-trifluoromethyl-pyrimidin-2-ylamino)-phenyl]-morpholin-4-yl-methanone] | 1.08 nM
27 | CCNc1nc(Nc2ccc(C(=O)N3CCC(F)(F)C3)c3c2OCCO3)ncc1C(F)(F)F [Compound 6] | 0.636 nM
